Results published in publication PMC10046369, “Low-Affinity/High-Selectivity Dopamine Transport Inhibition Sufficient to Rescue Cognitive Functions in the Aging Rat” (Biomolecules, 2023).

Tests used:
Assay in all cases: biochemical
Parameters in all cases: KINOMEscan competition binding panel, per cent of control
Conditions in all cases: read-out: %Ctrl @ 2800nM
PHKG1 = PHKG1 (Homo sapiens, UniProt Q16816)
Procedure, shortened: (§1)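 Competition binding panel (KINOMEscan) across 450 human kinases and disease-relevant mutants, run to the contractor's standard protocol. Values are % control: (test signal − positive control signal)/(negative control signal − positive control signal) × 100, with lower values indicating stronger binding.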

MKNK2 = MKNK2 (Homo sapiens, UniProt Q9HBH9)
Procedure, shortened: as §1

QSK = target: T1, QSK (Homo sapiens, UniProt Q9Y2K2)
T1 construct: gene SIK3
Procedure, shortened: as §1

PIK3C2B = PIK3C2B (Homo sapiens, UniProt O00750)
Procedure, shortened: as §1

CDK7 = CDK7 (Homo sapiens, UniProt P50613)
Chain of CDK7 (P50613 whole entry): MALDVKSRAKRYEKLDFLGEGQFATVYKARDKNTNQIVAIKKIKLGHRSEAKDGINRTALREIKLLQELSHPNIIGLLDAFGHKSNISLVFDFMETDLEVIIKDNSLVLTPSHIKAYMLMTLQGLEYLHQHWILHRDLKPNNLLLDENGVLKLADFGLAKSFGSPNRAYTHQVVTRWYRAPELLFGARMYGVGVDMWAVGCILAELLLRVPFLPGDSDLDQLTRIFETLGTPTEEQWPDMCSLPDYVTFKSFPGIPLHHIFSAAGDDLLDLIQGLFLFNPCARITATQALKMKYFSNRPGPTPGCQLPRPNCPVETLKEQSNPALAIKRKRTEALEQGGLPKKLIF
Procedure, shortened: as §1

EPHB1 = EPHB1 (Homo sapiens, UniProt P54762)
Procedure, shortened: as §1

PIK3CA(Q546K) = PIK3CA(Q546K) (Homo sapiens, UniProt P42336, Q546K)
Procedure, shortened: as §1

MAP4K5 = MAP4K5 (Homo sapiens, UniProt Q9Y4K4)
Chain of MAP4K5 (Q9Y4K4 whole entry): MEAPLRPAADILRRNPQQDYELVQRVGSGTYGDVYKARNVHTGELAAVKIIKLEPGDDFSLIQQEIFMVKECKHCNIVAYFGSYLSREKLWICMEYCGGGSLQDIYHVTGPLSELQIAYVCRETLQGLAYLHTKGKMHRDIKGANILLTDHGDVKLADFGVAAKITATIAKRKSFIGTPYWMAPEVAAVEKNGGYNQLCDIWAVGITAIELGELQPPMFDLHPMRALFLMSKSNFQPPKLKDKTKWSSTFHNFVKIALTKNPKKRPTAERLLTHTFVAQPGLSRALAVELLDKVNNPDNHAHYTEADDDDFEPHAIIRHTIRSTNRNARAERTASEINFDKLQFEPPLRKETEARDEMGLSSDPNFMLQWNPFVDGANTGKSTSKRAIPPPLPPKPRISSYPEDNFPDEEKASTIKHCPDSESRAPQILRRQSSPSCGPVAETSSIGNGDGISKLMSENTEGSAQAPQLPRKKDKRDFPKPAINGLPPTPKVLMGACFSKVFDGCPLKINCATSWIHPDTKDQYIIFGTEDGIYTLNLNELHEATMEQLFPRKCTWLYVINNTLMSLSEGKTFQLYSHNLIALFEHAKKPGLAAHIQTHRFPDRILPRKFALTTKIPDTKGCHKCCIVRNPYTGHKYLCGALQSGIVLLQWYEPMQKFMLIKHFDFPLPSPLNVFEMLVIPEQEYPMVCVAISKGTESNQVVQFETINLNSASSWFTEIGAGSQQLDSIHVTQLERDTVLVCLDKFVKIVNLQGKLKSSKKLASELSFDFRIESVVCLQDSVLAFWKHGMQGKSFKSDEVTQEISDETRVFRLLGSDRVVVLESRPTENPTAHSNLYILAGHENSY
Procedure, shortened: as §1

IRAK4 = IRAK4 (Homo sapiens, UniProt Q9NWZ3)
Procedure, shortened: as §1

MAP3K3 = MAP3K3 (Homo sapiens, UniProt Q99759)
Procedure, shortened: as §1

OSR1 = target: T2, OSR1 (Homo sapiens, UniProt O95747)
T2 construct: gene OXSR1
Procedure, shortened: as §1

FLT1 = FLT1 (Homo sapiens, UniProt P17948)
Chain of FLT1 (P17948 whole entry): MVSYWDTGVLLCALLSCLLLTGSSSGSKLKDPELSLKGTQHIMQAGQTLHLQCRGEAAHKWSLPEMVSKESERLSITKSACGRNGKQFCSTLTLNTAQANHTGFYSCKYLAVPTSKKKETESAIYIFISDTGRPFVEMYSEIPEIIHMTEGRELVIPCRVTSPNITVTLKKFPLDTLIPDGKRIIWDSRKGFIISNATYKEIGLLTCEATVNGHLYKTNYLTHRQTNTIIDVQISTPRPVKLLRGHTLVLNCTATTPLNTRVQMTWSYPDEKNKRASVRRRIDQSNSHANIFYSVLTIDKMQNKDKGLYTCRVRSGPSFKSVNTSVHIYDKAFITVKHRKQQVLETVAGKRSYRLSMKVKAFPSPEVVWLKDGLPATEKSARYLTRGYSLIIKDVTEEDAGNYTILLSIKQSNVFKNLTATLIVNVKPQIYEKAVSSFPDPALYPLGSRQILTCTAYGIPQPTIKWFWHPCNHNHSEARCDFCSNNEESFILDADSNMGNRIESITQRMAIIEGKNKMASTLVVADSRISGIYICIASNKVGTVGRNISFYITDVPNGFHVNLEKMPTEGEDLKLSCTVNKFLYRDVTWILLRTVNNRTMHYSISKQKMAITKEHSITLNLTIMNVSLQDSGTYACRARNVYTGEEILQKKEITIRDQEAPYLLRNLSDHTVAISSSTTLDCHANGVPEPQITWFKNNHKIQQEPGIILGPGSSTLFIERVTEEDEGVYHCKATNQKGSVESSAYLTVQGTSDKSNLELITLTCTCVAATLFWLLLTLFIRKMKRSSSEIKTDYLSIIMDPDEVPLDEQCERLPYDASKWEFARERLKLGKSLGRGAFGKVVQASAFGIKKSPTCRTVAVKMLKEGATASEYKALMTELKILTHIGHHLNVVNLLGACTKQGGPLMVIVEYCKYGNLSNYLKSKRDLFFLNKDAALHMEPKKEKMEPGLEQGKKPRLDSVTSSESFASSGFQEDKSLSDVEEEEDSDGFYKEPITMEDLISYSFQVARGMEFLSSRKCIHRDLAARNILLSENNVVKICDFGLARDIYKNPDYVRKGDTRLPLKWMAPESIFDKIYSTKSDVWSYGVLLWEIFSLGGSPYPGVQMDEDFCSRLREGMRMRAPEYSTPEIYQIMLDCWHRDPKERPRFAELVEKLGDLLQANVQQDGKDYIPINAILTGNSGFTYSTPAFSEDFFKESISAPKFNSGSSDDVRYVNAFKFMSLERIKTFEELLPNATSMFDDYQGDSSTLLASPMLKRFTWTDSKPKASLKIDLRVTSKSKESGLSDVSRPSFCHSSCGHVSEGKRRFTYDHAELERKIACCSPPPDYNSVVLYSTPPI
Procedure, shortened: as §1

MAPKAPK5 = MAPKAPK5 (Homo sapiens, UniProt Q8IW41)
Procedure, shortened: as §1

RIOK3 = RIOK3 (Homo sapiens, UniProt O14730)
Chain of RIOK3 (O14730 whole entry): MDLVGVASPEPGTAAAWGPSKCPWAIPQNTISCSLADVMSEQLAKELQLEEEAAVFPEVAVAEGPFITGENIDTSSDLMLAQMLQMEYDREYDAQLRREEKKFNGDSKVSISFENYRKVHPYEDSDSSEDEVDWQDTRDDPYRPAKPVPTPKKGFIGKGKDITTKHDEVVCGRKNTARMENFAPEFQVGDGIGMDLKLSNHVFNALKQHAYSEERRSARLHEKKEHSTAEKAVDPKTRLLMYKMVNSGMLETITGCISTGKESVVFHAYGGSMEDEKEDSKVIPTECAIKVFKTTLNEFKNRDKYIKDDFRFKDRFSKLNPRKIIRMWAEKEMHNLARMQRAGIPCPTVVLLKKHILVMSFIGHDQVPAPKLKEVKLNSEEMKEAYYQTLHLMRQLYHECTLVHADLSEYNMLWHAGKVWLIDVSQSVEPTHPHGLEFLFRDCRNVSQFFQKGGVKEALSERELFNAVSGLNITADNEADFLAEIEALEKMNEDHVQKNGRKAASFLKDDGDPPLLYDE
Procedure, shortened: as §1

PRKG1 = PRKG1 (Homo sapiens, UniProt Q13976)
Procedure, shortened: as §1

MYLK = MYLK (Homo sapiens, UniProt Q15746)
Procedure, shortened: as §1

CDK9 = CDK9 (Homo sapiens, UniProt P50750)
Procedure, shortened: as §1

CDK8 = CDK8 (Homo sapiens, UniProt P49336)
Procedure, shortened: as §1

ABL2 = ABL2 (Homo sapiens, UniProt P42684)
Chain of ABL2 (P42684 whole entry): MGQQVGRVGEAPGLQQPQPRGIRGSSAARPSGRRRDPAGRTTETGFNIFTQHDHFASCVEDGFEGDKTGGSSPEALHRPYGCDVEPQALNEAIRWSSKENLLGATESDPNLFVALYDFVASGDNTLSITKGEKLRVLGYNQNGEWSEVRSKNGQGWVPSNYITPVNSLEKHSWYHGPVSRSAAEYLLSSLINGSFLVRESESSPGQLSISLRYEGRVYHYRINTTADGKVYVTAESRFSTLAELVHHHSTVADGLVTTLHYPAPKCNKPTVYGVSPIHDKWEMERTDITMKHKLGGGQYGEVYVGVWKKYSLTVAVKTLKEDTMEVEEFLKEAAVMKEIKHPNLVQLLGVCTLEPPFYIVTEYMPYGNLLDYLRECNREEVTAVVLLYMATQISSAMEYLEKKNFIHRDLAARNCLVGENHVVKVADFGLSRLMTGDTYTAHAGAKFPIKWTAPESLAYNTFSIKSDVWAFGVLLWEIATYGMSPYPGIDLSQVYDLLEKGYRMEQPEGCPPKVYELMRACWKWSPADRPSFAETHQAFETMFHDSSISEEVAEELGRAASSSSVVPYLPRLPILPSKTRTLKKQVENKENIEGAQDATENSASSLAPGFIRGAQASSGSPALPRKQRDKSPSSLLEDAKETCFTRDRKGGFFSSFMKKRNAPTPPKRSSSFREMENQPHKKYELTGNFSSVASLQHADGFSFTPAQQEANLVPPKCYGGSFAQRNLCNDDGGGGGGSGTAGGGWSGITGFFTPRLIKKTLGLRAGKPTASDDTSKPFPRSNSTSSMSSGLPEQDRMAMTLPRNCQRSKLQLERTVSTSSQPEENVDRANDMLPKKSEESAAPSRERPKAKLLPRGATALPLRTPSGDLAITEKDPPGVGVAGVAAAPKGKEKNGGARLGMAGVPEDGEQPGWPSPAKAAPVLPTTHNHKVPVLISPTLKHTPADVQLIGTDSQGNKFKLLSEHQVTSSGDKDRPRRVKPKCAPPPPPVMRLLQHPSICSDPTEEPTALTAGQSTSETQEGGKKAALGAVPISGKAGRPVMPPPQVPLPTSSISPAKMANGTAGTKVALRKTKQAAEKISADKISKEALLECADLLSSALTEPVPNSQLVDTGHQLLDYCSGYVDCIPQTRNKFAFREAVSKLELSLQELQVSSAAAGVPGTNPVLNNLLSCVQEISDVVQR
Procedure, shortened: as §1

FGFR3(G697C) = FGFR3(G697C) (Homo sapiens, UniProt P22607, G697C)
Chain of FGFR3(G697C) (P22607 whole entry G697C): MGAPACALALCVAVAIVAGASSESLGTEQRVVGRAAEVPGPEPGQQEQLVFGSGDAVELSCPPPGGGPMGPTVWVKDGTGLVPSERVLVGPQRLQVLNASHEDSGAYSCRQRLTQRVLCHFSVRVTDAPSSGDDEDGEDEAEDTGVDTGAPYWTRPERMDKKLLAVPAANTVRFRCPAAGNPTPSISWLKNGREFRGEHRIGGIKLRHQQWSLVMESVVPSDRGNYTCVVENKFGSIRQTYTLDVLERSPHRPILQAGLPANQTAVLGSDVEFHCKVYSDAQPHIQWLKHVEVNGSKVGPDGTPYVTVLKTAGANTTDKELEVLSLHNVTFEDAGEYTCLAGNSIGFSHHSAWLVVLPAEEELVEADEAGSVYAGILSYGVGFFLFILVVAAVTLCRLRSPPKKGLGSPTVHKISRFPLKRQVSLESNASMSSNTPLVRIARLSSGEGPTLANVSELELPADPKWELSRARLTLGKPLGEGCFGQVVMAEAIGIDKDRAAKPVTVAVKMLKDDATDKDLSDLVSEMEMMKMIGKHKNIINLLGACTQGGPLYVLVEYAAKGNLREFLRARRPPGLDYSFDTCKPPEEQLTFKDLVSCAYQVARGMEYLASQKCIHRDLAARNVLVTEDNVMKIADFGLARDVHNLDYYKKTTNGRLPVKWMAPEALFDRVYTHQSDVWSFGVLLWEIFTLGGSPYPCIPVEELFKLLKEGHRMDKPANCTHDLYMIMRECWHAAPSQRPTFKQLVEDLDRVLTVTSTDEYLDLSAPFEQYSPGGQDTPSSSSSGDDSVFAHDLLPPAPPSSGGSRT
Procedure, shortened: as §1

PFTAIRE2 = target: T3, PFTAIRE2 (Homo sapiens, UniProt Q96Q40)
T3 construct: gene CDK15
Procedure, shortened: as §1

TAOK2 = TAOK2 (Homo sapiens, UniProt Q9UL54)
Procedure, shortened: as §1

AKT3 = AKT3 (Homo sapiens, UniProt Q9Y243)
Procedure, shortened: as §1

[1] = target: T4, RSK3(Kin.Dom.1-N-terminal) (Homo sapiens, UniProt Q15349)
T4 construct: gene RPS6KA2; Kin.Dom.1-N-terminal
Procedure, shortened: as §1

DLK = target: T5, DLK (Homo sapiens, UniProt Q12852)
T5 construct: gene MAP3K12
Procedure, shortened: as §1

ERK8 = target: T6, ERK8 (Homo sapiens, UniProt Q8TD08)
T6 construct: gene MAPK15
Procedure, shortened: as §1

SMILES: [O-][S@@+](Cc1cncs1)C(c1ccccc1)c1ccccc1 [S-CE-123, (S)-5-((Benzhydrylsulfinyl)Methyl)Thiazole]
- remaining binding at 2.8 µM (PHKG1): 100%
- remaining binding at 2.8 µM (MKNK2): 69%
- remaining binding at 2.8 µM (QSK): 93%
- remaining binding at 2.8 µM (PIK3C2B): 98%
- remaining binding at 2.8 µM (CDK7): 70%
- remaining binding at 2.8 µM (EPHB1): 100%
- remaining binding at 2.8 µM (PIK3CA(Q546K)): 97%
- remaining binding at 2.8 µM (MAP4K5): 95%
- remaining binding at 2.8 µM (IRAK4): 94%
- remaining binding at 2.8 µM (MAP3K3): 86%
- remaining binding at 2.8 µM (OSR1): 90%
- remaining binding at 2.8 µM (FLT1): 100%
- remaining binding at 2.8 µM (MAPKAPK5): 100%
- remaining binding at 2.8 µM (RIOK3): 97%
- remaining binding at 2.8 µM (PRKG1): 100%
- remaining binding at 2.8 µM (MYLK): 96%
- remaining binding at 2.8 µM (CDK9): 92%
- remaining binding at 2.8 µM (CDK8): 96%
- remaining binding at 2.8 µM (ABL2): 99%
- remaining binding at 2.8 µM (FGFR3(G697C)): 96%
- remaining binding at 2.8 µM (PFTAIRE2): 100%
- remaining binding at 2.8 µM (TAOK2): 100%
- remaining binding at 2.8 µM (AKT3): 99%
- remaining binding at 2.8 µM [1]: 100%
- remaining binding at 2.8 µM (DLK): 100%
- remaining binding at 2.8 µM (ERK8): 100%
